Source: BigSolDB 2.1

Cc1c(-c2ccccc2)oc2c(C(=O)OCCN3CCCCC3)cccc2c1=O.Cl
solubility (mole fraction)
Conditions | 278.15 K | 283.15 K | 288.15 K | 293.15 K | 298.15 K | 303.15 K | 308.15 K | 313.15 K | 318.15 K | 323.15 K
in 2-ethoxyethanol | 0.000121 | 0.000162 | 0.000173 | 0.000211 | 0.000252 | 0.000309 | 0.000362 | 0.00044 | 0.000533 | 0.000636
in 2-methoxyethanol | 0.000431 | 0.000521 | 0.000578 | 0.000675 | 0.000788 | 0.000931 | 0.00107 | 0.00129 | 0.00152 | 0.00182
in 2-propoxyethanol | 0.000193 | 0.000212 | 0.000255 | 0.000303 | 0.000355 | 0.000413 | 0.000509 | 0.000593 | 0.000704 | 0.000881
in DMSO | – | – | – | 0.000626 | 0.000775 | 0.000911 | 0.00107 | 0.00129 | 0.00152 | 0.0018
in NMP | 0.000254 | 0.000334 | 0.00039 | 0.00047 | 0.000548 | 0.000646 | 0.000768 | 0.000919 | 0.00109 | 0.0013
in acetonitrile | 2.88e-05 | 3.71e-05 | 4.2e-05 | 4.95e-05 | 6.13e-05 | 7.58e-05 | 8.98e-05 | 0.000112 | 0.000141 | 0.000174
in ethanol | 8.81e-05 | 9.89e-05 | 0.000117 | 0.000143 | 0.000182 | 0.00022 | 0.000284 | 0.000364 | 0.000452 | 0.000565
in ethylene glycol | 0.000868 | 0.00115 | 0.00136 | 0.00161 | 0.002 | 0.00236 | 0.00284 | 0.00347 | 0.00415 | 0.005
in methanol | 0.000529 | 0.000637 | 0.000808 | 0.000961 | 0.00116 | 0.0014 | 0.00169 | 0.00207 | 0.00255 | 0.00317
in n-butanol | 3.52e-05 | 4.51e-05 | 6.1e-05 | 9.1e-05 | 0.000124 | 0.000171 | 0.000223 | 0.000303 | 0.000374 | 0.000468
in n-propanol | 2.87e-05 | 3.76e-05 | 4.58e-05 | 6.56e-05 | 0.000107 | 0.000142 | 0.000188 | 0.000252 | 0.000331 | 0.000425
in water | 0.000219 | 0.00026 | 0.000301 | 0.000361 | 0.000442 | 0.000526 | 0.000629 | 0.000757 | 0.00092 | 0.00114
